Measurements taken from patent US20240336640A1, “CALCIUM OXALATE CRYSTALLIZATION INHIBITORS FOR RENAL DISORDERS” (VIFOR (INTERNATIONAL) AG, priority 2018, published 2024).
Structures can show the parent of a compound that is named as a salt.

Test: CaOx crystallization inhibition assay in human urine, pH 6.2
Conditions: human urine pH 6.2, 1 mM sodium oxalate, 7 h, light microscopy
Procedure: For comparison of the compounds' efficacy to inhibit calcium oxalate (CaOx) crystallization a simple in vitro assay in urine was used. In brief, human urine (pH 6.2) was mixed with compound, followed by the addition of 1 mM sodium oxalate inducing CaOx crystallization. After 7 hours of incubation at room temperature crystallization was measured by light microscopy, employing an automated image analysis to detect, classify and quantify the CaOx crystal types formed, namely CaOx monohydrate (COM) and CaOx dihydrate (COD).
Human urine was stored at −20° C. in 50 mL aliquots. After thawing, aliquots were centrifuged, filtered using a 0.45-μm syringe filter and pH set to 6.2. Oxalate concentrations of human urine samples were determined using the Oxalate Assay kit following the kit protocol, and found to be <100 μM for the samples used. Dilutions of sodium and compounds were prepared in Bis Tris buffer (50 mM, 150 mM NaCl, pH 6.2). Urine was mixed with compound in Eppendorf tubes, and subsequently sodium oxalate was added. The final assay mixture of 1 mL total volume contained 90% urine, 5% sodium oxalate (1 mM) and 5% compound dilution. Immediately upon sodium oxalate addition, the final assay mixture was vortexed and added to the imaging slide (8 well glass bottom chamber, ibidi). 400 μL per well were added and two wells for each sample were prepared. Crystallization was assessed after 7 h incubation at room temperature, using a Leica CTR6000 microscope (Leica Microsystems, Wetzlar, Germany) in brightfield mode. For visualization, images with a 40× objective were used. For quantification 2 wells/sample with five 20× objective images each were used. Without addition of sodium oxalate no crystallization was observed.
Quantification and classification of crystals was performed in Matlab (version R2016b or R2018b). In brief, crystals were segmented using edge detection and watershed algorithms and subsequently shape, intensity and texture features for each crystal were extracted. The extracted features served as input for a semi-supervised classification approach to distinguish COM (class 0), COD (class 1), not determined structures (class 2) and background noise (class 3). A cubic support vector machine (SVM) classifier was trained and subsequently used for classification of testing images.
All testing images were processed using the Batch Processing App. Efficacy of compounds to inhibit CaOx crystallization was compared by analysing the total area per field of view for each crystal type. The sum of the total area of the three crystal classes—COM, COD and unclassified, was normalized to the control within each experiment (N=3). Due to the inherent variability of the crystallization process itself, normalization within each experiment decreased the effect of inter-experimental variability.

Compound	50% complete inhibition (<50% total area) [µM]	COM inhibition (<5% of total area) [µM]	Complete inhibition (i.e <5% total area) [µM]
COCCOCCO[C@@H]1C(OP(=O)(O)O)[C@H](OCCOCCOC)[C@@H](OP(=O)(O)O)C(OP(=O)(O)O)[C@H]1OP(=O)(O)O (stereo partly drawn) [(OEG2)2-IP4]	>100	>100	>100
O=C(O)CC(O)(CC(=O)O)C(=O)O [Citrate, Trisodium citrate dihydrate]	>100	>100	>100
O=P(O)(O)O[C@H]1[C@H](OP(=O)(O)O)[C@@H](OP(=O)(O)O)[C@H](OP(=O)(O)O)[C@@H](OP(=O)(O)O)[C@H]1OP(=O)(O)O [IP6, inositol hexaphosphate]	30	3	>30
COCCOCCOCCOCCOCCOCCOCCOCCOCCOCCOCCO[C@@H]1[C@@H](OP(=O)(O)O)[C@H](OP(=O)(O)O)[C@@H](OP(=O)(O)O)[C@@H](OP(=O)(O)O)[C@H]1OP(=O)(O)O [OEG11-IP5]	11	100	>100
